Reference: US6686370B2, “Triazospiro compounds having nociceptin receptor affinity” (Euro-Celtique S.A., priority 1999, dated 2004)

## O=C1NCN(c2ccccc2)C12CCN(C1CCc3ccccc3C1)CC2 (stereo not shown) [8-[1,2,3,4tetrahydronaphthyl]-1-phenyl-1,3,8-triazospiro[4.5]decan-4-one]
  melting point: 192 to 193 °C
